In patent US11802120B2, “Fused cyclic urea derivatives as CRHR2 antagonist” (RaQualia Pharma Inc., priority 2018, dated 2023):

Tests used:
Assay type in all cases: cell-based
human CRHR1-beta = molecular target: T1, human CRHR1-beta (Homo sapiens, UniProt P34998); experiment: cAMP functional assay for human CRHR1 (LANCE Ultra cAMP, TR-FRET); conditions: CHO-K1 cells expressing human CRHR1-beta, agonist CRF at EC80, cAMP; read-out: IC50 against CRHR1
T1 sequence (P34998 24-444 isoform P34998-1 limits assumed): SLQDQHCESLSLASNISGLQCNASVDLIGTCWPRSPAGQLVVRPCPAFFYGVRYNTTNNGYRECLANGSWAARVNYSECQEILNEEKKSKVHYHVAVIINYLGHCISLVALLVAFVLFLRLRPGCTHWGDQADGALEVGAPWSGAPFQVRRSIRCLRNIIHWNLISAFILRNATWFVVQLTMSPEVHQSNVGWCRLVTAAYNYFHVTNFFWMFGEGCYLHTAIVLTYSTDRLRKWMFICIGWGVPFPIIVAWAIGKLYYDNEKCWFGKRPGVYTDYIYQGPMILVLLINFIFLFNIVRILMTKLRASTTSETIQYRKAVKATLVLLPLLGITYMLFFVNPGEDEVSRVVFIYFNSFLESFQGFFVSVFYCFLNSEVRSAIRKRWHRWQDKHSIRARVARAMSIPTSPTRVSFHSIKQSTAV
Protocol: cAMP functional assay for human CRHR1 and CRHR2
The ability of the compounds of this invention to inhibit either CRHR2 or CRHR1 is assessed by 3′,5′-cyclic adenosine monophosphate (cAMP) production in cells using the LANCE Ultra cAMP assay kit (ParkinElmer), which are designed based on the homogeneous time-resolved fluorescence resonance energy transfer (TR-FRET) immunoassay.
CHO-K1 (Chinese hamster ovary) cells stably expressing either human CRHR2-alpha (DiscoveRX, Cat. 95-0048C2) or human CRHR1-beta (DiscoveRX, Cat. 95-0047C2) are grown in HAM's F12 media supplemented with 10% fetal bovine serum (FBS), 100 units/mL penicillin, 100 microg/mL hygromycin and 0.5 microg/mL geneticin at 37° C. in 5% CO2 humidified incubator to 80% confluence. After 7 hours starvation treatment in culture media containing 0.1% FBS, the cells are washed with Hanks balanced salt solution (HBSS) and cryopreserved.
For cAMP assay, frozen cells are thawed and washed with HBSS, followed by resuspended in assay buffer (HBSS containing 0.1% bovine serum albumin, 0.5 mM isobutylmethylxanthine and 5 mM Hepes, pH 7.4) at the appropriate concentration for the assay. The cell suspensions are plated on 384-well microplates (Greiner Bio-One) at a density of 4,000 cells per well. After preincubating the cells with various concentrations of the compounds for 30 min at 25° C., an assay buffer containing EC80 concentration of each agonist is added and the cells are incubated for 30 min at 25° C. Human urocortin2 (Peptide Institute) and CRF (Peptide Institute) are used as agonists for CRHR2 and CRHR1, respectively. For the termination of assay, europium-labeled cAMP tracer and ULight (registered trademark) dye labeled cAMP antibodies, both prepared with Lance-Ultra cAMP detection reagent (Perkin Elmer) are added in the plate and incubate for 60 min at 25° C. After incubation, TR-FRET signal is detected by EnVision plate reader (PerkinElmer). The IC50 values for compounds are calculated from dose-response curves by fitting the percent inhibition using XLfit (ID Business Solutions).

CRHR2 = molecular target: T2, CRHR2 (Homo sapiens, UniProt Q13324); experiment: CRHR2 antagonistic activity (inhibitory activity against CRHR2)
T2 sequence (Q13324 1-411): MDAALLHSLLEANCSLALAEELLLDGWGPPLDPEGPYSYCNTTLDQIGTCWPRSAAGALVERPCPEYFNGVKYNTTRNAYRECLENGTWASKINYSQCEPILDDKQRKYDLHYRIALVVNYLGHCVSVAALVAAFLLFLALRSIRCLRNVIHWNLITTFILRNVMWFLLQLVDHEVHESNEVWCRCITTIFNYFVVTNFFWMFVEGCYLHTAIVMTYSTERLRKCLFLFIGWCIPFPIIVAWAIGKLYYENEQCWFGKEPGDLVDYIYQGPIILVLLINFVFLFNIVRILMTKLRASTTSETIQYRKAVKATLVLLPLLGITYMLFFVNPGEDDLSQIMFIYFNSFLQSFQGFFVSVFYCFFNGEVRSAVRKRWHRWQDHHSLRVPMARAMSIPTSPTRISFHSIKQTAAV

human CRHR2-alpha = molecular target: T3, human CRHR2-alpha (Homo sapiens, UniProt Q13324); experiment: cAMP functional assay for human CRHR2 (LANCE Ultra cAMP, TR-FRET); conditions: CHO-K1 cells expressing human CRHR2-alpha, agonist human urocortin2 at EC80, cAMP; read-out: IC50 against CRHR2
T3 sequence (Q13324 1-411): T2 sequence (Q13324 1-411)
Summary of the method: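 Antagonism measured in CHO-K1 cells stably expressing the receptor, serum-starved 7 h then cryopreserved. Thawed cells in HBSS buffer with 0.1% BSA, 0.5 mM IBMX, 5 mM Hepes pH 7.4 were preincubated with compound 30 min at 25° C, then stimulated 30 min with EC80 agonist: urocortin2 for CRHR2, CRF for CRHR1.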

Row | IC50 (human CRHR1-beta) [nM] | IC50 (CRHR2) [nM] | IC50 (human CRHR2-alpha) [nM] | SMILES
1 | < 1000 | 60 | < 300 | COc1ccc(-n2c(=O)n(C[C@H]3CC[C@H](NC(=O)c4cc(Cl)cnc4C)CC3)c3ccccc32)cn1 [Example 30, 5-chloro-N-((1r,4r)-4-((3-(6-methoxypyridin-3-yl)-2-oxo-2,3-dihydro-1H-benzo[d]imidazol-1-yl)methyl)cyclohexyl)-2-methylnicotinamide]
2 |  | 280 | < 300 | Cc1ncc(Cl)cc1C(=O)N[C@H]1CC[C@H](Cn2c(=O)n(-c3cccnc3)c3ccccc32)CC1 [Example 156, 5-chloro-2-methyl-N-((1r,4r)-4-((2-oxo-3-(pyridin-3-yl)-2,3-dihydro-1H-benzo[d]imidazol-1-yl)methyl)cyclo-hexyl)nicotinamide]
3 |  | 280 | < 300 | Cc1ncc(Cl)cc1C(=O)N[C@H]1CC[C@H](Cn2c(=O)n(-c3cnc4[nH]ncc4c3)c3ccccc32)CC1 [Example 128, 5-chloro-2-methyl-N-((1r,4r)-4-((2-oxo-3-(1H-pyrazolo[3,4-b]pyridin-5-yl)-2,3-dihydro-1H-benzo[d]imidazol-1-yl)methyl)cyclohexyl)nicotinamide]
4 |  | 60 | < 300 | Cc1ncc(Cl)cc1C(=O)N[C@H]1CC[C@H](Cn2c(=O)n(-c3cnc4c(ccn4C)c3)c3ccccc32)CC1 [Example 148, 5-chloro-2-methyl-N-((1r,4r)-4-((3-(1-methyl-1H-pyrrolo [2,3-b]pyridin-5-yl)-2-oxo-2,3-dihydro-1H-benzo[d]imidazol-1-yl)methyl)cyclo-hexyl)nicotinamide]
